Measured values as given in ChEMBL document CHEMBL5352418, “Molecular networking assisted discovery and combinatorial biosynthesis of new antimicrobial pleuromutilins” (Eur J Med Chem, 2022).

Test system: Mycobacterium tuberculosis variant bovis
Experiment: Antibacterial activity against Mycobacterium bovis BCG ATCC 35743 constitutive expressing GFP assessed as bacterial growth inhibition at 20 uM by CLSI protocol based broth microdilution method
Format: functional
Conditions: read-out: GI

Question: For `C=C[C@]1(C)C[C@@H](O)[C@@]2(C)C3[C@H](O)CC[C@@]3(CC[C@H]2C)[C@@H](C)[C@@H]1O` (some centres undefined), which inhibition of growth at 20 µM is on record?
Answer: The inhibition of growth at 20 µM was 36%.

Question: With `C=C[C@]1(C)C[C@@H](O)[C@@]2(C)C3CCC[C@@]3(CC[C@H]2C)[C@@H](C)C1` (some centres undefined) as the molecule, how does the inhibition of growth at 20 µM read?
Answer: Its inhibition of growth at 20 µM is 24%.

Question: How did the inhibition of growth at 20 µM turn out when `C=C[C@]1(C)C[C@@H](OC(=O)CO)[C@@]2(C)C3C(=O)CC[C@@]3(CC[C@H]2C)[C@@H](C)[C@@H]1O` (some centres undefined) was run?
Answer: Its inhibition of growth at 20 µM is 50%.

Question: How did the inhibition of growth at 20 µM turn out when `C=C[C@]1(C)C[C@@H](OC(=O)CO)[C@@]2(C)C3=CC(=O)C[C@@]3(CC[C@H]2C)[C@@H](C)[C@@H]1O` was run?
Answer: Its inhibition of growth at 20 µM is 62%.

Question: For `C=C[C@]1(C)C[C@@H](O)[C@@]2(C)C3C(=O)CC[C@@]3(CC[C@H]2C)[C@@H](C)[C@@H]1O` (some centres undefined), which inhibition of growth at 20 µM is on record?
Answer: Its inhibition of growth at 20 µM is 48%.

Question: Which inhibition of growth at 20 µM does the source give for `C=C[C@]1(C)C[C@@H](OC(=O)CO)[C@@]2(C)C3C(=O)[C@H](O)CC3(CC[C@H]2C)[C@@H](C)[C@@H]1O` (single isomer, unassigned) here?
Answer: Its inhibition of growth at 20 µM is 34%.

Question: `C[C@@H]1CC[C@@]23CCC(=O)C2[C@]1(C)[C@H](OC(=O)CO)C[C@@](C)([C@H](O)CO)[C@@H](O)[C@@H]3C` (some centres undefined) was tested. Which inhibition of growth at 20 µM did it give?
Answer: Its inhibition of growth at 20 µM is 20%.

Question: Which inhibition of growth at 20 µM does the source give for `C=C[C@]1(C)C[C@@H](OC(C)=O)[C@@]2(C)C3=CC(=O)C[C@@]3([C@H](O)C[C@H]2C)[C@@H](C)[C@@H]1O` here?
Answer: The inhibition of growth at 20 µM was 34%.

Question: With `C=C[C@]1(C)C[C@@H](OC(C)=O)[C@@]2(C)C3[C@H](O)CC[C@@]3(CC[C@H]2C)[C@@H](C)[C@@H]1O` (some centres undefined) as the molecule, how does the inhibition of growth at 20 µM read?
Answer: The inhibition of growth at 20 µM was 43%.
